Experimental data: ChEMBL document CHEMBL5390243, “Catecholamine Derivatives: Natural Occurrence, Structural Diversity, and Biological Activity” (J Nat Prod, 2023)
≈ marks a conversion by molar mass, not a printed value.

Columns and labels:
[1] = Antioxidant activity assessed as DPPH radical scavenging activity measured for 45 mins by spectrophotometric analysis; format: functional
RAW264.7 [2] = test: Anti-inflammatory activity against mouse RAW264.7 cells assessed as inhibition of LPS-induced nitric oxide production at 50 uM preincubated for 2 hrs with compound followed by LPS-stimulation and measured after 24 hrs by Griess reagent based analysis; format: functional, cell-based
RAW264.7 [3] = test: Anti-inflammatory activity against mouse RAW264.7 cells assessed as inhibition of LPS-induced NO production at 10 uM preincubated with compound for 2 hrs followed by LPS stimulation and measured after 24 hrs by Griess reagent based analysis; format: functional, cell-based
Klebsiella pneumoniae = test: Antimicrobial activity against Klebsiella pneumoniae 02-63 assessed as reduction in microbial cell growth incubated for 16 to 18 hrs by Mueller-Hinton broth based microdilution method; format: functional; settings: time 16-18 hrs
Candida albicans [4] = test: Antifungal activity against Candida albicans Y0109 assessed as reduction in microbial growth by micro-broth dilution method; format: functional
Staphylococcus aureus [5] = test: Antibacterial activity against Staphylococcus aureus 01-159 assessed as bacterial growth inhibition measured after 16 to 18 hrs by Mueller-Hinton broth based microdilution method; format: functional; settings: time 16-18 hrs
Streptococcus pneumoniae = test: Antimicrobial activity against Streptococcus pneumoniae 02-123 assessed as reduction in microbial growth incubated for 16 to 18 hrs by Mueller-Hinton broth based microdilution method; format: functional; settings: time 16-18 hrs
Cryptococcus neoformans = test: Antifungal activity against Cryptococcus neoformans assessed as reduction in fungal cell growth incubated for 24 hrs by microbroth dilution method; format: functional
Candida albicans [6] = test: Antifungal activity against Candida albicans SC5314 assessed as reduction in fungal growth incubated for 24 hrs by serial dilution method; format: functional
Influenza A virus = test: Antiviral activity against Influenza A virus H1N1 infected in dog MDCK cells assessed as inhibition in virus-induced cytopathic effect incubated for 48 hrs by SRB assay; format: functional, organism-based
[7] = target: Alpha amylase (Homo sapiens) (UniProt P0DUB6); test: Inhibition of alpha-amylase (unknown origin) at 0.556 ug/ml relative to control; settings: dose 0.556 µg/ml
Sequence of Alpha amylase (Homo sapiens) (P0DUB6 whole entry, looked up): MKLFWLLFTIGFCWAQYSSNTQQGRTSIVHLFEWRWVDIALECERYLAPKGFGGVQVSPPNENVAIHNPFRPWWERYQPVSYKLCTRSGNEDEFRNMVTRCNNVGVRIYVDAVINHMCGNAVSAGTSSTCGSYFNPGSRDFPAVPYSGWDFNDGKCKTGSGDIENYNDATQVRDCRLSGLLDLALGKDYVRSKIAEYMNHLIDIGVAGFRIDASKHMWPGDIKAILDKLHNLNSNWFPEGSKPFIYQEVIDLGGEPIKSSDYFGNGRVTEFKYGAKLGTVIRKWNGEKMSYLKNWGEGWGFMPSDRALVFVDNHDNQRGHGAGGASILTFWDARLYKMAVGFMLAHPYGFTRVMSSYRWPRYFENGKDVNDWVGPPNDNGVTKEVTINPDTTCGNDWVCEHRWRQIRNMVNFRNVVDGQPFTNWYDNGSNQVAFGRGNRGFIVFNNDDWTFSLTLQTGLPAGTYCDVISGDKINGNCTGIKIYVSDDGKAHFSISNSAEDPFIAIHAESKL

[8] = target: Peroxisome proliferator-activated receptor alpha (Homo sapiens) (UniProt Q07869); test: Activation of PPARalpha (unknown origin) expressed in human HepG2 cells assessed as fold change at 1.47 ug/ml incubated for 24 hrs by luciferase assay; format: cell-based; settings: filed as activator, dose 1.47 µg/ml
Sequence of Peroxisome proliferator-activated receptor alpha (Homo sapiens) (Q07869 whole entry): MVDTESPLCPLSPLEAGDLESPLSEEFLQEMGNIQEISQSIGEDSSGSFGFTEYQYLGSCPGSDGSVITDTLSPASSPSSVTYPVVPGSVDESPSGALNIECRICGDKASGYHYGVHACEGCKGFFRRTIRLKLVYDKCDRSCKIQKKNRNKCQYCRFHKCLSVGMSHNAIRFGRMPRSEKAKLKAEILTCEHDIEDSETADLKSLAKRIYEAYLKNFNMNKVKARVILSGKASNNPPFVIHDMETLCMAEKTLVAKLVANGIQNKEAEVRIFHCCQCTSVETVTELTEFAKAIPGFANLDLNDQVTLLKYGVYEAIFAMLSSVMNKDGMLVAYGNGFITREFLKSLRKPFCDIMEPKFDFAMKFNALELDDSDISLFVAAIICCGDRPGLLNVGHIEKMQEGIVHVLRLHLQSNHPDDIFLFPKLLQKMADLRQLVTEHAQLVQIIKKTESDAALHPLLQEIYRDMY

Trypanosoma cruzi = test: Antiprotozoal activity against Trypanosoma cruzi Y strain infected in Swiss albino mouse model assessed as reduction in parasitemia measured after 24 hrs; format: functional, organism-based
[9] = target: Alpha-2B adrenergic receptor (Homo sapiens, UniProt P18089); test: Binding affinity to alpha2B receptor (unknown origin) assessed as inhibition constant
Sequence of Alpha-2B adrenergic receptor (P18089 whole entry): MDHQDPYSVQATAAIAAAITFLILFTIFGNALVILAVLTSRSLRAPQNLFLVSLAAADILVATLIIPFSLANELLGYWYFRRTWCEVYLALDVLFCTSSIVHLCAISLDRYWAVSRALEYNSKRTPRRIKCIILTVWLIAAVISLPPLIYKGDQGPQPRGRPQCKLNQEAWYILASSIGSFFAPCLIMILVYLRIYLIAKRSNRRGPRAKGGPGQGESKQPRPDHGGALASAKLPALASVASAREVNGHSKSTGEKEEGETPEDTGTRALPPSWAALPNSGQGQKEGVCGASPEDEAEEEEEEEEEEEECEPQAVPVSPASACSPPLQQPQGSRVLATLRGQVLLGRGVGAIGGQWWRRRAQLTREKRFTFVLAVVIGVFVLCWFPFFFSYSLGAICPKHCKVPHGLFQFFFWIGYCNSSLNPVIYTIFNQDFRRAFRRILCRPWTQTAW

Acetylcholinesterase = Acetylcholinesterase (Homo sapiens, UniProt P22303); test: Inhibition of AChE (unknown origin)
Sequence of Acetylcholinesterase (P22303 whole entry): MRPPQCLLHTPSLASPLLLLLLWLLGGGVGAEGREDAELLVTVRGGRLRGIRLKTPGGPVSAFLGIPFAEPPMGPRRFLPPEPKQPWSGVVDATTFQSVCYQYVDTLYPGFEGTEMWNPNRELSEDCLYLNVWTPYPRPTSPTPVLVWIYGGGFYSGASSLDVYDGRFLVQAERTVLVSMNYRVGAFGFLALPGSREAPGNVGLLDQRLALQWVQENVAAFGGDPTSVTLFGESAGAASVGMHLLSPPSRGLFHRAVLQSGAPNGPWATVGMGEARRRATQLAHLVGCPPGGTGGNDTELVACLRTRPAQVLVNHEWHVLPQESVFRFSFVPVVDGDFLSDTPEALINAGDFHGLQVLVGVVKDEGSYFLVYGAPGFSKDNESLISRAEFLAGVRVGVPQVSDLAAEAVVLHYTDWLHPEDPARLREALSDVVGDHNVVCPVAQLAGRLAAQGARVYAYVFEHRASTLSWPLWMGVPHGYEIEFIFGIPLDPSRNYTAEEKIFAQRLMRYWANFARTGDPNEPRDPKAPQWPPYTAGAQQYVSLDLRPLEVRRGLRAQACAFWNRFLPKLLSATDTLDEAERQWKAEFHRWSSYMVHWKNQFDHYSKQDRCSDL

Nakaseomyces glabratus = test: Antifungal activity against Candida glabrata ATCC 15126 assessed as reduction in microbial growth incubated for 24 hrs by CLSI based broth micro-dilution method; format: functional
Staphylococcus aureus [10] = test: Antibacterial activity against methicillin-resistant Staphylococcus aureus […] assessed as bacterial growth inhibition measured after 24 hrs by CLSI based two-fold serial dilution method; format: functional
Staphylococcus aureus [11] = test: Antibacterial activity against vancomycin-intermediate Staphylococcus aureus ATCC 700787 assessed as bacterial growth inhibition incubated for 24 hrs by CLSI based two-fold serial dilution method; format: functional
[12] = Antioxidant activity assessed as ABTS radical scavenging activity incubated for 30 mins by UV-visible spectrphotometric analysis; format: functional
Staphylococcus aureus [13] = test: Antibacterial activity against methicillin-sensitive Staphylococcus aureus ATCC 29213 assessed as bacterial growth inhibition measured after 24 hrs by CLSI based two-fold serial dilution method; format: functional
[14] = Antioxidant activity assessed as DPPH radical scavenging activity measured after 30 mins by UV-visible spectrophotometric analysis; format: functional
[15] = Antioxidant activity assessed as DPPH radical scavenging activity measured after 30 mins by spectrophotometric analysis; format: functional
[16] = target: T1, Prostaglandin G/H synthase 2 (Homo sapiens, UniProt P35354); test: Inhibition of human recombinant COX-2 using arachidonic acid as substrate preincubated for 15 mins followed by substrate addition and measured after 2 mins by fluorescence based analysis
T1 sequence (P35354 whole entry): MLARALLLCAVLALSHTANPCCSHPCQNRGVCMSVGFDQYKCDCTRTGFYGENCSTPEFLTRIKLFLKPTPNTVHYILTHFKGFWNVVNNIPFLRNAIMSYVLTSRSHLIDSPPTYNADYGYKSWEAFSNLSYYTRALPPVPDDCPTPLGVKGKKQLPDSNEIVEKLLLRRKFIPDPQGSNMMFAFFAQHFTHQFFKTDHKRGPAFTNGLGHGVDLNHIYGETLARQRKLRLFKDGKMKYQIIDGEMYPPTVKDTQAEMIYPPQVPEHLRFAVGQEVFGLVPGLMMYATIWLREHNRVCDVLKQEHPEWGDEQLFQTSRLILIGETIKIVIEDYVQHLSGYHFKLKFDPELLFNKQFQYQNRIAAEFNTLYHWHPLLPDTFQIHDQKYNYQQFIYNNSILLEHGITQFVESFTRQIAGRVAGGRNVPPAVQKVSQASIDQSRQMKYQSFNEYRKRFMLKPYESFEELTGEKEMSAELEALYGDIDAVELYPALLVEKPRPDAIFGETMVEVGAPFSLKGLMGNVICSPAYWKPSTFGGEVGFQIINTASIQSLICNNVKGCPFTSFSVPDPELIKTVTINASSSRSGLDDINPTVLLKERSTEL

RAW264.7 [17] = test: Anti-inflammatory activity against mouse RAW264.7 cells assessed as inhibition of LPS-induced NO production at 25 uM; format: functional; parameters: scale not given: the % may be the effect or the level left
RAW264.7 [18] = test: Antiinflammatory activity against mouse RAW264.7 cells assessed as inhibition of LPS-induced TNF-alpha secretion at 20 uM after 24 hrs by ELISA relative to control; format: functional; parameters: scale not given: the % may be the effect or the level left
RAW264.7 [19] = test: Antiinflammatory activity against mouse RAW264.7 cells assessed as inhibition of LPS-induced TNF-alpha secretion at 4 uM after 24 hrs by ELISA relative to control; format: functional; parameters: scale not given: the % may be the effect or the level left
[20] = Immunosuppressive activity in Kunming mouse splenocyte assessed as inhibition of LPS-induced B-lymphocytes proliferation at 20 uM incubated for 72 hrs by CCK-8 assay relative to control; format: functional; parameters: scale not given: the % may be the effect or the level left
[21] = Immunosuppressive activity in Kunming mouse splenocyte assessed as reduction in ConA-stimulated T-lymphocytes proliferation at 20 uM incubated for 72 hrs by CCK-8 assay relative to control; format: functional, T-cell; parameters: scale not given: the % may be the effect or the level left
[22] = Antioxidant activity assessed as DPPH radical scavenging activity incubated for 30 mins by spectrophotometric method; format: functional
RAW264.7 [23] = test: Antiinflammatory activity against mouse RAW264.7 cells assessed as inhibition of LPS-induced nitric oxide production at 25 uM measured after 24 hrs relative to control; format: functional; parameters: scale not given: the % may be the effect or the level left
[24] = Immunosuppressive activity in Kunming mouse splenocyte assessed as reduction in ConA-stimulated T-lymphocytes proliferation incubated for 72 hrs by CCK-8 assay; format: functional, cell-based; settings: T-cell
RAW264.7 [25] = test: Anti-inflammatory activity in mouse RAW264.7 cells assessed as inhibition of LPS-induced TNFalpha production at 20 uM preincubated for 1 hr followed by LPS addition and measured after 24 hrs; format: functional; parameters: scale not given: the % may be the effect or the level left; settings: time 25 hrs

## O=C(O)[C@@H]1Cc2cc(O)c(O[C@@H]3O[C@H](CO)[C@@H](O)[C@H](O)[C@H]3O)cc2N1C(=O)/C=C/c1ccc(O[C@@H]2O[C@H](CO)[C@@H](O)[C@H](O)[C@H]2O)cc1
[1]
  EC50: 38.3 µM
RAW264.7 [2]
  IC50: 67.2 µM

## O=C1CC[C@H]2c3cc(O)c(O)cc3CCN12
RAW264.7 [3]
  IC50: 30.3 µM
Klebsiella pneumoniae
  MIC: 128 µg/mL
Candida albicans [4]
  MIC80: 32 µg/mL
Staphylococcus aureus [5]
  MIC: 32 µg/mL (≈ 146 µM)
Streptococcus pneumoniae
  MIC: 128 µg/mL
Cryptococcus neoformans
  MIC80: 32 µg/mL (≈ 146 µM)
Candida albicans [6]
  MIC80: > 64 µg/mL
Influenza A virus
  IC50: 56.8 µg/mL (≈ 259 µM)
[7]
  inhibition: 17%

## CC(C)(Oc1ccc(C2CC2(Cl)Cl)cc1)C(=O)O (configuration not stated)
[8]
  fold change (FC): 2.2

## OC[C@H]1O[C@@H](NCCc2ccc(O)c(O)c2)[C@H](O)[C@@H](O)[C@@H]1O
Trypanosoma cruzi
  IC50: 0.82 µM

## COc1cc(CCN(C)C)c2c(c1O)SC(CCNC(=N)N)(C1=NCCc3cc(O)c(O)cc31)S2 (configuration not stated)
[9]
  Ki: 5.9 µM

## COc1cc(/C=C/C(=O)NCCc2ccc(O)c(O)c2)ccc1O [N-TRANS-FERULOYLDOPAMINE]
Acetylcholinesterase
  IC50: 8.52 µM

## O=C1N[C@@H](Cc2ccc(O)c(O)c2)C(=O)N2CCC[C@@H]12
Nakaseomyces glabratus
  MIC: 128 µg/mL
Staphylococcus aureus [10]
  MIC: 256 µg/mL (≈ 927 µM)
Staphylococcus aureus [11]
  MIC: 256 µg/mL (≈ 927 µM)
[12]
  EC50: 1.71 µg/mL (≈ 6.19 µM)
Staphylococcus aureus [13]
  MIC: 256 µg/mL (≈ 927 µM)
[14]
  EC50: 12.98 µg/mL (≈ 47 µM)

## O=C1c2cc(O)c(O)cc2CCn2cccc21
[15]
  EC50: 14.4 µM

## CC(=O)NCCc1cc(O)c(O)cc1C(=O)c1ccc(O)c(O)c1
[16]
  IC50: 0.768 µM

## CC(=O)N/C=C/c1ccc(O)c(O)c1
RAW264.7 [17]
  Activity: 32.9%

## O=CN1CCc2cc(O)c(O)cc2C1
RAW264.7 [18]
  Activity: 31.63%
RAW264.7 [19]
  Activity: 20.9%
[20]
  Activity: 24.18%
[21]
  Activity: 31.27%

## O=C(O)[C@@H]1Cc2cc(O)c(O[C@@H]3O[C@H](CO[C@@H]4O[C@H](CO)[C@@H](O)[C@H](O)[C@H]4O)[C@@H](O)[C@H](O)[C@H]3O)cc2N1C(=O)/C=C/c1ccc(O)cc1
[22]
  EC50: 42.9 µM

## Oc1ccc(-c2cnccn2)cc1O
RAW264.7 [23]
  Activity: 42.11%

## CC(=O)NCCc1cc(O)c(O)cc1S(C)(=O)=O
[24]
  IC50: 33 µM
RAW264.7 [25]
  Activity: 52.77%
